According to patent US5512573A, “Use of phthaloylhydrazide derivatives as anti-hypoxic and defensive agents” (priority 1993, dated 1996):
Converted amounts (≈) assume the structure as drawn. Like-named read-outs stand apart in the source and are kept apart here.

Assays:
[1] = system: brain ischemia (carotid tying) in mice; assay: Example 4: carotid tying and release in mice; format: in vivo
Procedure: We performed experiments on 50 mice of the pyramid by tying the carotid under light anesthesia. After 7 minutes, we released the tie and restored the blood circulation in the ischemic area.

[2] = system: psoriasis patients
[3] = system: leukocytes in ischemic tissue; surviving animals; details: intramuscular injections, p>0.05
[4] = physchem
[5] = system: guinea pigs
Text: The allergenic activity of the drug was examined in guinea pigs.

[6] = physchem; remark: listed apart in the source
[7] = system: male rats
Procedure: The effect of the sodium salt of 5-aminophthaloylhydrazide on blood pressure (BP) was examined in male rats weighing 230 to 270 g, in a controlled experiment where the rats were anesthetized with urethane. The blood pressure was recorded on tape by means of an electrical kymograph.
At the same time, we recorded the electrocardiogram in the second standard position as well as any changes in frequency and depth of respiration by means of a Morey capsule. We administered 5-aminophthaloylhydrazide in the femoral vein in the form of an aqueous solution prepared in a 2% sodium bicarbonate solution (pH=8.2), in doses of 40 mg/kg, 80 mg/kg and 50 mg/kg. Research on 5-aminophthaloylhydrazide was performed on 16 rats.

[8] = system: female pregnant rats; details: 60 mg/kg i.p.
Procedure: Teratogenic tests and embryotoxicity tests were performed on 58 female pregnant rats. A single dose was injected intraperitoneally on days 1, 3, 7, 10, 14 and 17 of gestation (60 mg/kg). The rats were decapitated on day 21 of the pregnancy and the uteruses and fetuses were examined.

[9] = system: transplant rejection; assay: Skin transplant from another animal (description); format: in vivo; details: 100 to 200 mg/kg
Text: Treatment started on the second day following a skin transplant from another animal and continued for 45 to 50 days.

[10] = system: psoriasis
Procedure: Patient, ill for 5 years. Was cured in the hospital several times during that period. Complained about itching, general weakness, unpleasant sensations in parts of the skin. […] Diagnosis: psoriasis approaching the acute phase.
The drug was administered intravenously to the patient.

[11] = system: animal organisms; assay: Pharmacological studies, general toxicity statement; details: in vivo
[12] = system: male mice; details: 40 to 80 mg/kg
Procedure: To study the pharmacological properties on the central nervous system, doses of 40 to 80 mg per kilogram of body weight were used. The choice of doses was based on safety criteria governing the use of medicines.
The neuropharmacological effects were studied in male mice of undefined strain which had reached sexual maturity. The mice, weighing 18 to 20 g, were given a solution of the drug intraabdominally. The neuropharmacological effects were studied on the basis of changes in the natural orientation reflex, in induced aggressiveness, and in muscle tone. The change in the natural sense of orientation was recorded according to the current method. To study the effect of the drug on induced aggressiveness, the electrical stimulation method (pain caused by electric current) was used.
The change in muscle tone was measured by means of the "pivot pin" method.

[13] = system: high-level hypoxia in male mice
Procedure: Experiments to test the resistance of the animals to high-level hypoxia were performed on 120 male mice weighing 18 to 20 g, and having reached sexual maturity.
Five minutes before the experiment, the animals were given the following doses intramuscularly:
the first group (control group), 0.1 ml of physiological solution;
the second group (test group), a 20% oil solution in a dose of 30 mg/kg;
the third group, 5-aminophthaloylhydrazide in a dose of 30 mg/kg;
the fourth group, 5-aminophthaloylhydrazide in a dose of 60 mg/kg;
the fifth group, 5-aminophthaloylhydrazide in a dose of 80 mg/kg;
the sixth group, 5-aminophthaloylhydrazide in a dose of 150 mg/kg;
the seventh group, the drug in a dose of 200 mg/kg.
The period of tolerance to hypoxia was determined by raising the animals to an altitude of 10,400 meters at the speed of 100 meters per second.

[14] = physchem; details: octanol/water, pH 7.4
[15] = system: skin transplant rejection in chinchillas; details: intravenous, p<0.01
Procedure: The experiments involved 30 chinchillas from which a strip of skin was removed measuring 2×2 cm. The resulting lesion was covered by an outside transplant. The animals were divided into three groups.
The first group was treated with traditional therapy (prednisolone and cyclosporine); the second group was given 5aminophthaloylhydrazide daily in a dose of 150 mg/kg; the third group received a combined treatment.
To assess the efficacy of the drug, the period before the rejection was measured and morphological studies were conducted.

[16] = system: Corazolum- and strychnine-induced convulsions; details: 40 and 80 mg/kg
[17] = system: acute focal hypoxia
[18] = Summary of experiments on phthaloylhydrazide derivatives; format: in vivo

Q: For Nc1cccc2c(=O)[nH][nH]c(=O)c12 [5-aminophthaloylhydrazide, 5-amino-2,3-dihydrophthalazine-1,2 dione], which “percentage of surviving animals” value ([1]; 30 mg/kg, p>0.05) is on record?
A: The value was “did not increase”.

Q: And the “cases with symptoms of neurological impairment” value ([1]; 100 mg/kg intramuscular)?
A: The value was 3 cases.

Q: What about the “effectiveness of intramuscular administration” value ([1]; 100 mg/kg intramuscular) of the same compound?
A: Its value is “the intramuscular administration of the drug was not effective”.

Q: What about the surviving animals ([1]; 100 mg/kg intramuscular) of the same compound?
A: The surviving animals was “Six out of 10”.

Q: And the “cases without symptoms of neurological impairment” value ([1]; 100 mg/kg intravenous)?
A: The value was 8 cases.

Q: And the surviving animals ([1]; 100 mg/kg intravenous)?
A: The surviving animals was 9 out of 10.

Q: And the “cases with symptoms of damage to the central nervous system” value ([1]; 150 mg/kg)?
A: The value was 2 cases.

Q: What about the surviving animals ([1]; 150 mg/kg) of the same compound?
A: Its surviving animals is 80%.

Q: What about the “survival rate on further dose increase” value ([1]; above 100 mg/kg) of the same compound?
A: The value was “did not lead to a reliable increase in the survival rate”.

Q: What about the “surviving animals without symptoms of neurological impairment” value ([1]; two administrations of 100 mg/kg, 12-hour interval) of the same compound?
A: Its value is 9 animals.

Q: And the “clinical picture of psoriasis” value ([2]; 12 to 20 mg/kg daily)?
A: Its value is “the itching disappeared, the temperature went down and the surface area of the affected zone shrunk”.

Q: And the “epithelization of the pustules” value ([2]; drug plus topical 4% solution in 10% DMSO)?
A: Its value is “epithelization of the pustules occurred”.

Q: And the “percentage of surviving animals” value [3]?
A: Its value is 60%.

Q: And the solubility ([4]; pH 6.5)?
A: Its solubility is 2 mM (≈ 354 µg/mL).

Q: What about the solubility ([4]; pH 7.4) of the same compound?
A: Its solubility is 12 mM (≈ 2130 µg/mL).

Q: What about the local irritation ([5]; 20 to 100 mg) of the same compound?
A: The local irritation was “no symptoms of local irritation”.

Q: And the “erythema at the site of administration” value ([5]; even large doses)?
A: The value was “No erythema was observed at the site of administration”.

Q: And the signs of allergy ([5]; subcutaneously or orally)?
A: Its signs of allergy is “No signs of allergy were observed”.

Q: What about the pKa [6] of the same compound?
A: Its pKa is 6.3.

Q: And the electrocardiogram parameters ([7]; 20 mg and 50 mg/kg)?
A: Its electrocardiogram parameters is “no changes were observed in the electrocardiogram parameters of the heart”.

Q: And the respiratory functions ([7]; 20 mg and 50 mg/kg)?
A: Its respiratory functions is “no impairment of the respiratory functions was observed”.

Q: And the “negative effect on the cardiovascular system or the respiration” value ([7]; 40 and 50 mg/kg)?
A: The value was “did not present any evidence of a negative effect on the cardiovascular system or the respiration”.

Q: And the “rise in blood pressure compared to the initial level” value ([7]; i.v. 1% solution, 0.6 ml/minute, average)?
A: The value was 1.57±5.93%.

Q: What about the “sudden fluctuations in the increase in blood pressure” value ([7]; i.v., 40 mg or 50 mg/kg) of the same compound?
A: Its value is “No sudden fluctuations in the increase in blood pressure were observed”.

Q: What about the “time for blood pressure to return to the initial level” value ([7]; i.v., average) of the same compound?
A: The value was no more than 30 min.

Q: What about the “fluctuations in the level of blood pressure compared to the beginning” value ([7]; thirty minutes after administration, average) of the same compound?
A: Its value is 2.79±0.72.

Q: What about the “abnormality of the fetuses” value ([8]; single dose on days 1, 3, 7, 10, 14 and 17 of gestation) of the same compound?
A: Its value is “No abnormality of the fetuses was observed”.

Q: What about the “site of uterine attachment, number, weight and mortality of the fetuses” value ([8]; vs control group) of the same compound?
A: The value was “did not differ from those obtained for the control group”.

Q: What about the “effectiveness vs hormonal drugs (corticosteroids)” value [9] of the same compound?
A: Its value is “exceeds the hormonal drugs with long-term action known thus far (corticosteroids)”.

Q: What about the “response to subsequent treatment cycle” value ([10]; 12 days) of the same compound?
A: Its value is “made it possible to eliminate the main symptoms and led to a long-term remission of the main symptoms”.

Q: And the “residual pustules and papules” value ([10]; flexor parts of the hands)?
A: Its value is “Individual pustules and papules on the flexor parts of the hands remained”.

Q: What about the “time to return of acute symptoms” value ([10]; human, in vivo) of the same compound?
A: Its value is 4 months.

Q: What about the clinical symptoms ([10]; intravenous, after 10 days of treatment) of the same compound?
A: The clinical symptoms was “the itching and weakness disappeared, the temperature dropped and the skin symptoms disappeared”.

Q: What about the “affected parts of the skin tissue” value ([10]; intravenous, day 20) of the same compound?
A: The value was “the affected parts of the skin tissue had shrunk”.

Q: And the “toxicity in animal organisms” value [11]?
A: Its value is “absence of toxicity”.

Q: What about the pain threshold [12] of the same compound?
A: Its pain threshold is “nor did it cause changes in muscle tone or modifications in the pain threshold”.

Q: And the natural orientation reflex ([12]; intraabdominal)?
A: The natural orientation reflex was “did not suppress the natural orientation reflex”.

Q: And the muscle tone ([12]; pivot pin method)?
A: Its muscle tone is “nor did it cause changes in muscle tone”.

Q: And the “therapeutic effectiveness vs Dibunolo” value ([13]; 30 mg/kg)?
A: Its value is “less therapeutically effective than the known antioxidant Dibunolo”.

Q: What about the “therapeutic effectiveness vs Dibunolo” value ([13]; 100 mg, p<0.001) of the same compound?
A: The value was “exceeded that of Dibunolo in a reliable manner”.

Q: What about the “dose with the greatest therapeutic effect” value ([13]; intramuscular) of the same compound?
A: The value was 80 mg/kg.

Q: And the “extension of life under high-level hypoxia” value ([13]; intramuscular, all doses)?
A: Its value is “extended life under conditions of high-level hypoxia in all cases”.

Q: What about the “therapeutic effect on last increase in dose” value ([13]; last increase in administered amount) of the same compound?
A: The value was “did not increase the therapeutic effect achieved”.

Q: And the logD [14]?
A: Its logD is -0.699.

Q: And the “rejection process vs traditional therapy” value [15]?
A: The value was “slowed the rejection process down considerably”.

Q: And the “reduction of induced convulsions” value [16]?
A: The value was “did not reduce the induced convulsions”.

Q: What about the “prevention of Corazolum- and strychnine-induced convulsions” value ([16]; preventive administration) of the same compound?
A: The value was “did not prevent Corazolum- and strychnine-induced convulsions”.

Q: And the “effects of acute focal hypoxia” value ([17]; in a series of cases)?
A: Its value is “it was possible to prevent the effects of acute focal hypoxia”.

Q: And the “therapeutic effect by number of administrations” value ([17]; single vs two administrations at 12-hour intervals)?
A: The value was “a single administration of the drug proved insufficient and the main therapeutic effect was obtained after two administrations”.

Q: And the “pharmacological activity, anti-hypoxic and defensive action” value ([18]; doses of 10 to 300 mg/kg)?
A: Its value is “possess a pronounced pharmacological activity”.

Q: What about the therapeutic effects ([18]; in vivo) of the same compound?
A: Its therapeutic effects is “major therapeutic effects”.
